In ChEMBL document CHEMBL1128235, “Inhibitors of HIV-1 protease containing the novel and potent (R)-(hydroxyethyl)sulfonamide isostere” (J Med Chem, 1995):

How the values were obtained:
[1] = molecular target: T1, Human immunodeficiency virus type 1 protease (Human immunodeficiency virus 1, UniProt Q72874); experiment: Ability to inhibit HIV-1 protease was determined using spectrofluorimetric assay.
[2] = molecular target: T1, Human immunodeficiency virus type 1 protease; experiment: Binding affinity for HIV-1 protease was determined.
[3] = molecular target: T1, Human immunodeficiency virus type 1 protease; experiment: Binding affinity for HIV-1 protease was determined
[4] = molecular target: T1, Human immunodeficiency virus type 1 protease; experiment: Ability to inhibit HIV-1 protease was determined using spectrofluorimetric assay
CCRF-CEM [5] = experiment: Antiviral activity against HIVIIIB strain of HIV-1 was determined in an CEM based assay; assay type: functional, cell-based; conditions: Homo sapiens
[6] = Toxicity in CEM cells infected with HIVIIIB strain of HIV-1; assay type: cell-based; conditions: human, CEM (CCRF-CEM) cells infected with HIV-1 strain IIIB; read-out: TD50 (the source's name)
[7] = molecular target: T1, Human immunodeficiency virus type 1 protease; experiment: Binding affinity for HIV-1 protease was determined in vitro
CCRF-CEM [8] = experiment: Antiviral activity against HIVIIIB strain of HIV-1 was determined in an CEM based assay.; assay type: functional, cell-based; conditions: Homo sapiens
[9] = molecular target: T1, Human immunodeficiency virus type 1 protease; experiment: Binding affinity for HIV-1 protease was determined in vitro.

| SMILES | IC50 [1] | Ki [2] | Ki [3] | IC50 [4] | also measured |
| --- | --- | --- | --- | --- | --- |
| CC(C)CCN(C[C@H](O)[C@H](Cc1ccccc1)NC(=O)OCc1ccccc1)S(=O)(=O)c1ccccc1 | 450 nM | 295 nM | – | – | – |
| O=C(N[C@@H](Cc1ccccc1)[C@H](O)CN(CC1CCCCC1)S(=O)(=O)c1ccccc1)OCc1ccccc1 | – | – | 6.7 nM | 14 nM | – |
| CC(C)CCN(C[C@@H](O)[C@H](Cc1ccccc1)NC(=O)[C@H](CC(N)=O)NC(=O)c1ccc2ccccc2n1)S(=O)(=O)c1ccccc1 | – | – | – | – | EC50 (CCRF-CEM [5]): 5 nM; CC50 [6]: 203000 nM |
| CC(C)CCN(C[C@@H](O)[C@H](Cc1ccccc1)NC(=O)OCc1ccccc1)S(=O)(=O)Cc1ccccc1 | 10000 nM | – | – | – | – |
| CC(C)CN(C[C@@H](O)[C@H](Cc1ccccc1)NC(=O)OCc1ccccc1)S(=O)(=O)c1ccccc1 | – | – | – | – | EC50 (CCRF-CEM [5]): 113 nM; Ki [7]: 3.2 nM |
| CC(C)CCN(C[C@@H](O)[C@H](Cc1ccccc1)NC(=O)[C@H](CC(N)=O)NC(=O)c1ccc2ccccc2n1)S(C)(=O)=O | – | – | – | – | EC50 (CCRF-CEM [5]): 53 nM; CC50 [6]: 45000 nM; Ki [7]: 13 nM |
| CC(C)CCN(C[C@@H](O)[C@H](Cc1ccccc1)NC(=O)[C@H](CC(N)=O)NC(=O)OCc1ccccc1)S(C)(=O)=O | – | – | 57 nM | 100 nM | – |
| CC(C)CCN(C[C@@H](O)[C@H](Cc1ccccc1)NC(=O)OCc1ccccc1)S(=O)(=O)c1ccccc1Cl | 380 nM | 227 nM | – | – | – |
| CC(C)CCN(C[C@@H](O)[C@H](Cc1ccccc1)NC(=O)OCc1ccccc1)S(=O)(=O)c1ccccc1 | – | – | – | – | EC50 (CCRF-CEM [8]): 55 nM; CC50 [6]: 26000 nM; Ki [9]: 10 nM |
| CC(C)CCN(C[C@@H](O)[C@H](Cc1ccccc1)NC(=O)OCc1ccccc1)S(=O)(=O)c1cccc(Cl)c1 | 92 nM | 61 nM | – | – | – |
| CCCS(=O)(=O)N(CCC(C)C)C[C@@H](O)[C@H](Cc1ccccc1)NC(=O)OCc1ccccc1 | 210 nM | 128 nM | – | – | – |
| CC(C)CCN(C[C@@H](O)[C@H](Cc1ccccc1)NC(=O)OCc1ccccc1)S(C)(=O)=O | – | – | 1870 nM | 3200 nM | – |
| O=C(N[C@@H](Cc1ccccc1)[C@H](O)CN(Cc1ccccc1)S(=O)(=O)c1ccccc1)OCc1ccccc1 | – | – | 125 nM | 190 nM | – |
| CC(C)CCN(C[C@@H](O)[C@H](Cc1ccccc1)NC(=O)OCc1ccccc1)S(=O)(=O)c1ccc(Cl)cc1 | 10 nM | 4.1 nM | – | – | – |
| CC(C)CCN(C[C@@H](O)[C@H](Cc1ccccc1)NC(=O)[C@H](CC(N)=O)NC(=O)OCc1ccccn1)S(=O)(=O)c1ccccc1 | – | – | 0.5 nM | 2.2 nM | – |
